Test results published in patent US4205163A, “Tylosin derivatives” (Sanraku-Ocean Co., Ltd., priority 1977, dated 1980).
Converted amounts (≈) assume the structure as drawn. Like-named read-outs stand apart in the source and are kept apart here.

Legend:
Sarcina lutea ATCC 9341 = assay: antimicrobial activity, broth dilution method; format: cell-based; conditions: Micrococcus luteus, ATCC9341, Sarcina lutea ATCC 9341, read-out: minimum inhibitory concentration (MIC)
Experimental: (§1) Antimicrobial activity of the new antibiotics according to the present invention was measured on various pathogenic microorganisms by the broth dilution mehtod. Tab. […] The new antibiotics show a similar antimicrobial spectrum to that of tylosin as shown in Tab. 4. All the compounds have an excellent antimicrobial activity mainly on gram-positive bacteria. […] Test microorganisms with an asterisk mark (*) in Tab. 4 are all drug-resistant strains that were clinically isolated. More in detail, Staphylococcus aureus MS-8710 is resistant to tylosin, penicillin, tetracycline, erythromycin and leucomycin. Staphylococcus aureus MS-9931 is resistant to tylosin, penicillin, erythromycin, tetracycline, leucomycin, spiramycin and josamycin. And also Streptococcus piogenes is resistant to tylosin, erythromycin, oleandomycin and leucomycin.

[1] = tested on: Streptococcus pyogenes MH-771; assay: antimicrobial activity, broth dilution method; format: cell-based; conditions: Streptococcus pyogenes, MH771, Streptococcus pyogenes MH-771, drug-resistant clinical isolate; read-out: minimum inhibitory concentration (MIC)
Experimental: as §1

[2] = tested on: Staphylococcus aureus SMITH; assay: antimicrobial activity, broth dilution method; format: cell-based; conditions: Staphylococcus aureus, Staphylococcus aureus SMITH; broth dilution; read-out: minimum inhibitory concentration (MIC)
Experimental: as §1

[3] = tested on: Bacillus cereus ATCC 9634; assay: antimicrobial activity, broth dilution method; format: cell-based; conditions: Bacillus cereus, ATCC9634, Bacillus cereus ATCC 9634; broth dilution; read-out: minimum inhibitory concentration (MIC)
Experimental: as §1

[4] = tested on: Staphylococcus aureus MS-9937; assay: antimicrobial activity, broth dilution method; format: cell-based; conditions: MS9937; Staphylococcus aureus MS-9937, drug-resistant clinical isolate; read-out: minimum inhibitory concentration (MIC)
Experimental: as §1

[5] = tested on: Staphylococcus aureus MS-9931; assay: antimicrobial activity, broth dilution method; format: cell-based; conditions: MS9931; Staphylococcus aureus MS-9931, drug-resistant clinical isolate; read-out: minimum inhibitory concentration (MIC)
Experimental: as §1

[6] = tested on: Staphylococcus aureus MS-8710; assay: antimicrobial activity, broth dilution method; format: cell-based; conditions: Staphylococcus aureus, MS8710, Staphylococcus aureus MS-8710, drug-resistant clinical isolate; read-out: minimum inhibitory concentration (MIC)
Experimental: as §1

[7] = tested on: Staphylococcus aureus FDA-209P; assay: antimicrobial activity, broth dilution method; format: cell-based; conditions: Staphylococcus aureus, FDA209P, Staphylococcus aureus FDA-209P; broth dilution; read-out: minimum inhibitory concentration (MIC)
Experimental: as §1

in vivo = conditions: mouse, po, 100 mg/kg
Experimental: The new antibiotics according to the present invention were each orally administered to mice at a dose of 100 mg/kg. Each blood level was then measured and compared with those of tylosin and 3-acetyltylosin.

[8] = tested on: Mycoplasma gallisepticum KP-13; assay: antibacterial activity against Mycoplasma; format: cell-based; conditions: Mycoplasmoides gallisepticum, KP13
Description: (§2) Furthermore the new antibiotics according to the present invention also show antimicrobial activity on Mycoplasma. In particular, it is noteworthy that they have much higher antimicrobial activity than tylosin on Mycoplasma that is resistant to macrolide antibiotics. Tab.
(§3) **Medium (Eiken PPLO Medium)

[9] = tested on: Mycoplasma gallisepticum E-5; assay: antibacterial activity against Mycoplasma; format: cell-based; conditions: Mycoplasmoides gallisepticum, E5
Description: as §2
(§4) *Macrolide resistant strain
as §3

[10] = tested on: Mycoplasma gallisepticum A-72; assay: antibacterial activity against Mycoplasma; format: cell-based; conditions: Mycoplasmoides gallisepticum, A72; strain A-72, macrolide resistant; Eiken PPLO Medium
Description: as §2, §4, §3

[11] = tested on: Mycoplasma gallisepticum E-11; assay: antibacterial activity against Mycoplasma; format: cell-based; conditions: Mycoplasmoides gallisepticum, E11; strain E-11, macrolide resistant; Eiken PPLO Medium; read-out: MIC
Description: as §2, §4, §3

[12] = strain KP-13, Eiken PPLO Medium, read-out: MIC
[13] = strain E-5, macrolide resistant, Eiken PPLO Medium, read-out: MIC

Cmax (in vivo)	SMILES	MIC (Sarcina lutea ATCC 9341)	MIC [1]	MIC [2]	MIC [3]	MIC [4]	MIC [5]	MIC [6]	MIC [7]	MIC [8, 12]	concentration at 1 h (in vivo)	concentration at 3 h (in vivo)	MIC [9, 13]	MIC [10]	MIC [11]	MIC [9]	MIC [8]
2000 to 5000 ng/mL	CCC1OC(=O)CC(OC(C)=O)C(C)C(OC2OC(C)C(OC3CC(C)(O)C(O)C(C)O3)C(N(C)C)C2O)C(CC=O)CC(C)C(=O)C=CC(C)=CC1COC1OC(C)C(O)C(OC)C1OC (stereo not drawn) [3-acetyltylosin, reference compound]	0.19 µg/mL (≈ 0.198 µM)	200 µg/mL (≈ 209 µM)	0.39 µg/mL (≈ 0.407 µM)	0.78 µg/mL (≈ 0.814 µM)	100 µg/mL (≈ 104 µM)	200 µg/mL (≈ 209 µM)	200 µg/mL (≈ 209 µM)	0.39 µg/mL (≈ 0.407 µM)								
	CCC1OC(=O)CC(O)C(C)C(OC2OC(C)C(OC3CC(C)(O)C(OC(=O)CCc4ccccc4)C(C)O3)C(N(C)C)C2O)C(CC=O)CC(C)C(=O)C=CC(C)=CC1COC1OC(C)C(O)C(OC)C1OC (stereo not drawn) [Compound 24, 4"-β-phenylpropionyltylosin]	0.19 µg/mL (≈ 0.181 µM)	25 µg/mL (≈ 23.8 µM)	0.39 µg/mL (≈ 0.372 µM)	0.78 µg/mL (≈ 0.744 µM)	25 µg/mL (≈ 23.8 µM)	12.5 µg/mL (≈ 11.9 µM)	12.5 µg/mL (≈ 11.9 µM)	0.78 µg/mL (≈ 0.744 µM)	0.078 µg/mL (≈ 0.0744 µM)	12000 ng/mL	2000 ng/mL	0.313 µg/mL (≈ 0.299 µM)	0.157 µg/mL (≈ 0.15 µM)	0.313 µg/mL (≈ 0.299 µM)		
	CCC1OC(=O)CC(O)C(C)C(OC2OC(C)C(OC3CC(C)(O)C(OC(=O)CCC4CCCCC4)C(C)O3)C(N(C)C)C2O)C(CC=O)CC(C)C(=O)C=CC(C)=CC1COC1OC(C)C(O)C(OC)C1OC (stereo not drawn) [Compound 29, 4"-β-cyclohexylpropionyl tylosin]	0.39 µg/mL (≈ 0.37 µM)	6.25 µg/mL (≈ 5.93 µM)	0.78 µg/mL (≈ 0.74 µM)	0.78 µg/mL (≈ 0.74 µM)	12.5 µg/mL (≈ 11.9 µM)	12.5 µg/mL (≈ 11.9 µM)	12.5 µg/mL (≈ 11.9 µM)	0.78 µg/mL (≈ 0.74 µM)	0.039 µg/mL (≈ 0.037 µM)				0.313 µg/mL (≈ 0.297 µM)	0.625 µg/mL (≈ 0.593 µM)	0.313 µg/mL (≈ 0.297 µM)	
	CCC1OC(=O)CC(OC(C)=O)C(C)C(OC2OC(C)C(OC3CC(C)(O)C(OC(=O)CN(C(C)=O)c4ccccc4)C(C)O3)C(N(C)C)C2O)C(CC=O)CC(C)C(=O)C=CC(C)=CC1COC1OC(C)C(O)C(OC)C1OC (stereo not drawn) [Compound 32, 3-acetyl-4"-(N-acetylanilino)acetyltylosin]	0.39 µg/mL (≈ 0.344 µM)	12.5 µg/mL (≈ 11 µM)	0.78 µg/mL (≈ 0.688 µM)	0.78 µg/mL (≈ 0.688 µM)	25 µg/mL (≈ 22.1 µM)	25 µg/mL (≈ 22.1 µM)	12.5 µg/mL (≈ 11 µM)	0.78 µg/mL (≈ 0.688 µM)				0.313 µg/mL (≈ 0.276 µM)	0.157 µg/mL (≈ 0.139 µM)	0.313 µg/mL (≈ 0.276 µM)		0.157 µg/mL (≈ 0.139 µM)
	CCC1OC(=O)CC(O)C(C)C(OC2OC(C)C(OC3CC(C)(O)C(OC(=O)CSc4ccc(Cl)cc4)C(C)O3)C(N(C)C)C2O)C(CC=O)CC(C)C(=O)C=CC(C)=CC1COC1OC(C)C(O)C(OC)C1OC (stereo not drawn) [Compound 37, 4"-(4-chlorophenyl)thioacetyltylosin]	0.19 µg/mL (≈ 0.173 µM)	3.13 µg/mL (≈ 2.84 µM)	0.39 µg/mL (≈ 0.354 µM)	0.78 µg/mL (≈ 0.709 µM)	6.25 µg/mL (≈ 5.68 µM)	6.25 µg/mL (≈ 5.68 µM)	12.5 µg/mL (≈ 11.4 µM)	0.39 µg/mL (≈ 0.354 µM)								
	CCC1OC(=O)CC(OC(C)=O)C(C)C(OC2OC(C)C(OC3CC(C)(O)C(OC(=O)CSCc4ccccc4)C(C)O3)C(N(C)C)C2O)C(CC=O)CC(C)C(=O)C=CC(C)=CC1COC1OC(C)C(O)C(OC)C1OC (stereo not drawn) [Compound 38, 3-acetyl-4"-benzylthioacetyltylosin]	0.39 µg/mL (≈ 0.347 µM)	6.25 µg/mL (≈ 5.57 µM)	0.78 µg/mL (≈ 0.695 µM)	1.56 µg/mL (≈ 1.39 µM)	12.5 µg/mL (≈ 11.1 µM)	12.5 µg/mL (≈ 11.1 µM)	12.5 µg/mL (≈ 11.1 µM)	0.78 µg/mL (≈ 0.695 µM)	0.019 µg/mL (≈ 0.0169 µM)			0.078 µg/mL (≈ 0.0695 µM)	0.078 µg/mL (≈ 0.0695 µM)	0.078 µg/mL (≈ 0.0695 µM)		
	CCC1OC(=O)CC(O)C(C)C(OC2OC(C)C(OC3CC(C)(O)C(OC(=O)CCSc4ccccc4)C(C)O3)C(N(C)C)C2O)C(CC=O)CC(C)C(=O)C=CC(C)=CC1COC1OC(C)C(O)C(OC)C1OC (stereo not drawn) [Compound 39, 4"-β-phenylthiopropionyltylosin]	0.19 µg/mL (≈ 0.176 µM)	6.25 µg/mL (≈ 5.79 µM)	0.39 µg/mL (≈ 0.361 µM)	0.39 µg/mL (≈ 0.361 µM)	12.5 µg/mL (≈ 11.6 µM)	12.5 µg/mL (≈ 11.6 µM)	12.5 µg/mL (≈ 11.6 µM)	0.78 µg/mL (≈ 0.722 µM)								
